Drawing on ChEMBL document CHEMBL5390233, “Design, synthesis and biological evaluation of 2-aminopyrimidine derivatives as potent FLT3 inhibitors” (Bioorg Med Chem Lett, 2023), this text covers IC50 for 16 compounds.

The term IC50 denotes the midpoint of a concentration-inhibition curve.

In one series the test system is MV4-11. Put plainly: Antiproliferative activity against human MV4-11 cells assessed as inhibition of cell growth. The format is functional, cell-based.
For series [1], the target named is T1, Receptor-type tyrosine-protein kinase FLT3 (Homo sapiens, UniProt P36888).
T1 sequence (P36888 whole entry): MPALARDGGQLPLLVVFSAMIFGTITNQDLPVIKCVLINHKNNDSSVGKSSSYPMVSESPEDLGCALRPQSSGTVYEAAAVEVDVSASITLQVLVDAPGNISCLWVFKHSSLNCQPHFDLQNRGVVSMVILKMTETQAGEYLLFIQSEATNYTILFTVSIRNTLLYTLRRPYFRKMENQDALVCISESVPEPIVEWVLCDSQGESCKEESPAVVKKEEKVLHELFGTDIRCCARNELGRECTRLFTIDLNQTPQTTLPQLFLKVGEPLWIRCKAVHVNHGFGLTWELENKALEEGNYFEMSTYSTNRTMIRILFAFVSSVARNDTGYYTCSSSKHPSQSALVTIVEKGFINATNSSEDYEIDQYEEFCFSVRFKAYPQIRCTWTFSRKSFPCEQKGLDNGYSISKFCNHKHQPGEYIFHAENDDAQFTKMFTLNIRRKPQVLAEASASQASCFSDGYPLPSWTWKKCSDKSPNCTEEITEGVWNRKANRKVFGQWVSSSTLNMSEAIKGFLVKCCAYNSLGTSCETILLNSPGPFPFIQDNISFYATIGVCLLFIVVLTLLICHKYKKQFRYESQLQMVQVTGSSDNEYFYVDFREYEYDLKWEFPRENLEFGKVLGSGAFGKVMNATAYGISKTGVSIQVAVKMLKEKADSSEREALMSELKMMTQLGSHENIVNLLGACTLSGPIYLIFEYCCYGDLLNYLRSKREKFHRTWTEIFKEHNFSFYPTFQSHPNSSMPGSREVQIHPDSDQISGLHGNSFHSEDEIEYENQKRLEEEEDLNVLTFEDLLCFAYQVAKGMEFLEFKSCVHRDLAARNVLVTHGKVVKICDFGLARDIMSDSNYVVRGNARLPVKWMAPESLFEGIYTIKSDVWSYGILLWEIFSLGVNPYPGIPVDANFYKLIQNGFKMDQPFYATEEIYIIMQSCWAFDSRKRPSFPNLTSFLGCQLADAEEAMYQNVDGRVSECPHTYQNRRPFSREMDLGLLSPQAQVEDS
Put plainly: Inhibition of wild type FLT3 (unknown origin).

Series [2] has as its target Receptor-type tyrosine-protein kinase FLT3 (Homo sapiens, UniProt P36888, D835Y). Put plainly: Inhibition of FLT3 D835Y mutant (unknown origin).
Series [3] deals with BaF3. Put plainly: Antiproliferative activity against mouse BaF3 cells harboring FLT3-ITD-D835Y mutant assessed as inhibition of cell growth. It is filed as functional, cell-based.
In a further series the test system is HeLa. Put plainly: Antiproliferative activity against human HeLa cells assessed as inhibition of cell growth. The format is functional, cell-based.
In series [4] the test system is BaF3. Put plainly: Antiproliferative activity against mouse BaF3 cells harboring FLT3-D835V mutant assessed as inhibition of cell growth. It is filed as functional, cell-based.
The subject of series [5] is BaF3. Put plainly: Antiproliferative activity against mouse BaF3 cells harboring FLT3-D835F mutant assessed as inhibition of cell growth. It is filed as functional, cell-based.
Series [6] is described as follows: Antiproliferative activity against human PBMC cells assessed as inhibition of cell growth. It is filed as toxicity, cell-based.
In series [7] the test system is BaF3. Put plainly: Antiproliferative activity against mouse BaF3 cells harboring FLT3-F691L mutant assessed as inhibition of cell growth. The format is functional, cell-based.
Another series relates to MCF7. Put plainly: Antiproliferative activity against human MCF7 cells assessed as inhibition of cell growth. It is filed as functional, cell-based.
The test system of series [8] is BaF3. Put plainly: Antiproliferative activity against mouse BaF3 cells harboring FLT3-ITD mutant assessed as inhibition of cell growth. The format is functional, cell-based.
The subject of another series is MOLM-13. Put plainly: Antiproliferative activity against human MOLM-13 cells assessed as inhibition of cell growth. It is filed as functional, cell-based.
For a further series, the system named is MM1.S. Put plainly: Antiproliferative activity against human MM1.S cells assessed as inhibition of cell growth. It is filed as functional, cell-based.

Take `CC1(COc2cccc(Nc3ncc(C(F)(F)F)c(N[C@@H]4CCCNC4)n3)c2)COC1`: the IC50 came out at 17.3 nM with MV4-11 (mv4-11), 16.5 nM in [1] and 24.3 nM in [2].
With `CC1(COc2ccc(Nc3ncc(C(F)(F)F)c(N[C@@H]4CCCNC4)n3)cc2)COC1`, the IC50 was found to be 9.74 nM in the series on MV4-11 (mv4-11), 14.3 nM in series [1] and 25.9 nM in [2].
For `CC1(COc2ccc(Nc3ncc(C(F)(F)F)c(N[C@H]4CC[C@H](O)CC4)n3)cc2)COC1`, the IC50 is 7.58 nM with MV4-11 (Homo sapiens, MV4-11); 29.6 nM in series [1]; 64.6 nM in series [2].
As for `CC1(COc2ccc(Nc3ncc(C(F)(F)F)c(N4CCOCC4)n3)cc2)COC1`, the IC50 in [1] came out at 339 nM; in series [2], 380 nM.
Take `CC1(COc2cccc(Nc3ncc(C(F)(F)F)c(NC4CCNCC4)n3)c2)COC1`: the IC50 in series [1] was found to be 32.1 nM; in [2], 68.7 nM.
Consider `CN1CCN(c2nc(Nc3ccc(OCC4(C)COC4)cc3)ncc2C(F)(F)F)CC1`, for which the IC50 in series [1] was 339 nM; in series [2], 686 nM.
On the same counts, the results for `CC1(COc2ccc(Nc3ncc(C(F)(F)F)c(N4CCNCC4)n3)cc2)COC1` are 231 nM and 351 nM.
As for `CC1(COc2ccc(Nc3ncc(C(F)(F)F)c(N4CCC(N)CC4)n3)cc2)COC1`, the IC50 in series [1] came out at 138 nM; in series [2], 350 nM.
On the same counts, the results for `CC1(COc2ccc(Nc3ncc(C(F)(F)F)c(N4CCC(O)CC4)n3)cc2)COC1` are 86 nM and 142 nM.
On to `CC1(COc2ccc(Nc3ncc(C(F)(F)F)c(N[C@H]4CC[C@@H](N)CC4)n3)cc2)COC1`, for which the IC50 was determined as 0.95 nM with BaF3 [3] (baf3); 5780 nM with HeLa (hela); 0.98 nM with BaF3 [4] (baf3); 0.94 nM in the series on BaF3 [5] (baf3); 0.83 nM in the series with MV4-11 (mv4-11); 7860 nM in series [6]. The IC50 in the series with BaF3 [7] (baf3) amounted to 4.2 nM; in the series with MCF7 (mcf7) it was 4980 nM; in series [1] it was 7.42 nM; with BaF3 [8] (baf3), 0.91 nM; in series [2], 9.21 nM; in the series on MOLM-13 it was 10.6 nM. Moreover, the IC50 with MM1.S (mm1.s) amounted to 2250 nM.
Turning to `CC1(COc2ccc(Nc3ncc(C(F)(F)F)c(NCC4CCNCC4)n3)cc2)COC1`, the IC50 in [1] worked out at 32.4 nM; in series [2] it was 40.8 nM.
On to `CC1(COc2ccc(Nc3ncc(C(F)(F)F)c(NC4CCNCC4)n3)cc2)COC1`, for which the figures for the IC50 in series [1] and in [2] were 28.9 nM and 41.7 nM, respectively.
Turning to `CC1(COc2ccc(Nc3ncc(C(F)(F)F)c(N[C@H]4CC[C@H](N)CC4)n3)cc2)COC1`, the half-inhibitory concentration (IC50) was found to be 26.4 nM with MV4-11 (mv4-11), 29.9 nM in [1] and 27.5 nM in series [2].
Turning to `CCc1nc(C(N)=O)c(Nc2ccc(N3CCC(N4CCN(C)CC4)CC3)c(OC)c2)nc1NC1CCOCC1` [GILTERITINIB], the concentration for half-maximal inhibition (IC50) with BaF3 [3] (Mus musculus, BaF3) worked out at 0.48 nM; in the series on HeLa (Homo sapiens, HeLa), 3200 nM; in the series with BaF3 [4] (Mus musculus, BaF3) it was 0.62 nM; in the series with BaF3 [5] (Mus musculus, BaF3) it was 0.66 nM; with MV4-11 (Homo sapiens, MV4-11), 1.34 nM; in series [6], 7030 nM. Also, the concentration for half-maximal inhibition (IC50) with BaF3 [7] (Mus musculus, BaF3) came out at 1.05 nM; in the series on MCF7 (Homo sapiens, MCF7), 1300 nM; in the series with BaF3 [8] (Mus musculus, BaF3), 0.6 nM; with MM1.S (Homo sapiens, MM1.S), 203 nM.
In the case of `CC1(COc2cccc(Nc3ncc(C(F)(F)F)c(NCC4CCNCC4)n3)c2)COC1`, the IC50 with MV4-11 (mv4-11) came to 6.93 nM; in series [1] it was 11 nM; in [2] it was 22.4 nM.
For the compound `CC1(COc2ccc(Nc3ncc(C(F)(F)F)c(N[C@H]4CC[C@@H](O)CC4)n3)cc2)COC1`, the IC50 was found to be 42.9 nM with MV4-11 (Homo sapiens, MV4-11); 9.46 nM in series [1]; 9.79 nM in [2].
